In PubChem BioAssay (NCI):
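In this assay, cells in 96-well plates receive the compound at five concentrations for 48 hours. Endpoints are linearly interpolated between the surrounding concentrations. GI50 = concentration required for 50% inhibition of growth. The concentration for full growth arrest is given as TGI.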

Legend:
Assay in all cases: inhibition of tumour cell growth, NCI panel, 48 h
[1] = test system: A549 NSCLC
[2] = test system: SNB-19 CNS
[3] = test system: NCI-H23 lung
[4] = test system: UACC-257 melanoma
[5] = test system: MOLT-4 leukemia
[6] = test system: UACC-62 melanoma
[7] = test system: HCT-116 colon
[8] = test system: HT29 colon
[9] = test system: ACHN renal
[10] = test system: CCRF-CEM leukemia

SMILES | TGI [1] [µM] | TGI [2] [µM] | TGI [3] [µM] | TGI [4] [µM] | TGI [5] [µM] | TGI [6] [µM] | TGI [7] [µM] | TGI [8] [µM] | TGI [9] [µM] | GI50 [1] [µM] | GI50 [2] [µM] | GI50 [10] [µM] | TGI [10] [µM] | GI50 [3] [µM] | GI50 [4] [µM] | GI50 [5] [µM] | GI50 [6] [µM] | GI50 [8] [µM] | GI50 [9] [µM] | GI50 [7] [µM]
OC1CCC(C2C3CCCCC3C3CCCCC3C2C2CCC(O)CC2)CC1 (configuration not stated) | > 100 | 32.2 | > 100 | 33.4 | > 100 | 31.2 | > 100 | 3.96 | 7.48 |  |  |  |  |  |  |  |  |  |  | 
C=C(CNCCO)[C@@H]1CC[C@]2(CO)CC[C@]3(C)[C@H](CC[C@@H]4[C@@]5(C)CCC(NCCc6ccc(O)cc6)C(C)(C)[C@@H]5CC[C@]43C)[C@@H]12 (some centres not stated) | 2.74 | 3.03 | 3.45 | 3.08 | 1.36 | 3.24 |  | 0.763 | 3.08 | 1.43 | 1.6 | 0.5 | 2.68 | 1.77 | 1.7 | 0.339 | 1.75 | 0.263 | 1.69 | 
COC(=O)c1ccc2c(c1)c1c(C)c3cnccc3c(C)c1n2C | 0.658 | 7.65 | 0.328 | 0.511 | 3.13 | 0.151 |  | 1.4 | 0.299 | 0.0615 | 0.0509 | 0.103 | 13.8 | 0.053 | 0.101 | 0.0468 | 0.0416 | 0.0418 | 0.0297 | 
Cn1cc(NC(=O)c2cc(NC(=O)CCCCCC(=O)Nc3cc(C(=O)Nc4cc(C(=O)NCCC(=N)N)n(C)c4)n(C)c3)cn2C)cc1C(=O)NCCC(=N)N | > 100 | > 100 | > 100 | > 100 |  | > 100 | > 100 | > 100 | > 100 |  |  |  | > 100 |  |  |  |  |  |  | 
c1ccc2c(NCCCCCCCCNc3c4ccccc4nc4ccccc34)c3ccccc3nc2c1 |  | 3.43 | 1.73 | 3.02 |  | 2.19 | 1.26 | 1.57 | 1.82 |  |  |  | 2.15 |  |  |  |  |  |  | 
c1cc2c(cnc3cscc32)s1 | > 100 | > 100 | > 100 | > 100 | > 100 |  | > 100 | > 100 | > 100 |  |  |  | > 100 |  |  |  |  |  |  | 
CCC(=O)N1C/C(=C/c2ccc(OC)cc2)C(=O)/C(=C/c2ccc(OC)cc2)C1 |  | 19.3 | 5.39 | 5.88 | > 100 | 3.01 | 0.646 | 4.13 | 3.43 |  | 2.93 | 1.75 | 8.31 | 2.26 | 2.21 | 3.31 | 1.6 | 1.18 | 1.8 | 0.263
COc1cccc2c(=O)c3c(sc12)c(NCCCN)nc1ccccc13 |  | 3.04 | 2.99 | 4.17 |  | 3.05 |  | 2.99 | 2.59 |  | 1.61 | 1.91 | 4.86 | 1.56 | 2 |  | 1.64 | 1.41 | 1.32 | 
CCc1cccc(C)c1NC(=O)CC1Sc2ccccc2NC1=O (configuration not stated) | > 100 | > 100 | > 100 | 57.7 | > 100 | > 100 | > 100 |  | > 100 |  |  |  | > 100 |  |  |  |  |  |  | 
C=CCN(N=O)C(=O)N(CCC)CCCC(NC(C)=O)C(=O)NCc1ccccc1 (configuration not stated) | > 100 | > 100 | > 100 | > 100 | > 100 | > 100 |  | > 100 | > 100 |  |  |  | > 100 |  |  |  |  |  |  | 
CN(C)CN1C(=O)S/C(=C2\C(=O)N(CN(C)C)c3ccccc32)C1=O | > 100 | > 100 | 49.2 | > 100 | 1.93 | > 100 | > 100 | > 100 | > 100 |  |  |  |  |  |  |  |  |  |  | 
CC[C@@]1(OC(=O)CCC(=O)O)C(=O)OCc2c1cc1n(c2=O)Cc2cc3ccccc3nc2-1 | 5.54 | > 43 | 0.838 | 2.09 | 0.163 | 0.255 |  | > 33.6 | 0.424 |  |  |  | 0.127 |  |  |  |  |  |  | 
COc1cc2ccc3c4cc(OC)c(OCc5ccccc5)cc4cnc3c2cc1OC | > 100 |  | > 100 | > 100 | > 100 | > 100 |  | > 100 | > 100 |  |  |  | > 100 |  |  |  |  |  |  | 
CCCCCCCCCCCCC(SCCNC(=O)CCNC(=O)C(O)C(C)(C)COP(=O)(O)OP(=O)(O)OCC1OC(n2cnc3c(N)ncnc32)C(O)C1OP(=O)(O)O)C(=O)NCC(N)=O (configuration not stated) | > 100 | > 100 | > 100 | > 100 |  | > 100 | > 100 | > 100 | > 100 |  |  |  | > 100 |  |  |  |  |  |  | 
Cc1ccc(S(=O)(=O)ON/N=C2/C3OC3[C@@H]3CCCC[C@H]23)cc1 (some centres not stated) | > 100 | > 100 | > 100 | 32.5 | > 100 | > 100 |  | > 100 | > 100 |  |  |  | > 100 |  |  |  |  |  |  | 
c1cc(-c2sc(-c3ccncc3)c(-c3ccncc3)c2-c2ccncc2)ccn1 | 45.8 | 55.9 | 31.9 | 31.8 | > 100 | 27.8 | 28.5 | 27.7 | 42.9 |  |  |  |  |  |  |  |  |  |  | 
O=c1c(OC/C(=N/O)c2ccccc2)c(-c2ccccc2)oc2ccccc12 | > 50 | > 50 | > 50 | 30.4 | > 50 | 25.2 |  | 34.3 | 28 | 30.3 | 15.9 | 0.461 | 6.47 | 18.1 | 14.1 | 12.6 | 9.2 | 13.7 | 10.5 | 
COc1ccc2c(C3(O)CCNCC3)c[nH]c2c1 | > 100 | > 100 | > 100 |  | > 100 | > 100 |  | > 100 | > 100 |  |  |  | > 100 |  |  |  |  |  |  | 
c1c[nH]c(Cc2ncc(Cc3cnc[nH]3)[nH]2)n1 | > 100 | 84.4 | > 100 |  | > 100 | 59.5 | > 100 | > 100 | 51.5 |  |  |  | 58.7 |  |  |  |  |  |  | 
CC(C)(C)N=CN1CCC(C(c2ccccc2)c2ccccc2)CC1 | > 100 | > 100 | > 100 | > 100 |  | > 100 | > 100 | 56.5 | > 100 |  |  |  |  |  |  |  |  |  |  | 
